Data as given in patent US20220370451A1, “INHIBITORS OF HUMAN IMMUNODEFICIENCY VIRUS REPLICATION” (VIIV HEALTHCARE UK ( No. 5) LIMITED, priority 2019, published 2022).

Legend:
recombinant NL4-3 virus = assay: HIV cell culture assay (luciferase reporter antiviral activity); format: cell-based; settings: Human immunodeficiency virus 1, NL43, MT2
Method: HIV cell culture assay—MT=2 cells, 293T cells and the proviral DNA clone of NL4-3 virus were obtained from the NIH AIDS Research and Reference Reagent Program. MT=2 cells were propagated in RPMI 1640 media supplemented with 10% heat inactivated fetal bovine serum (FBS), […] penicillin G and up to 100 units/mL streptomycin. The 293T cells were propagated in DMEM media supplemented with 10% heat inactivated FBS, […] penicillin G and […] streptomycin. A recombinant NL4-3 proviral clone, in which a section of the nef gene was replaced with the Renilla luciferase gene, was used to make the reference virus used in these studies. The recombinant virus was prepared through transfection of the recombinant NL4-3 proviral clone into 293T cells using Transit-293 Transfection Reagent from Mirus Bio LLC (Madison, Wis.). Supernatent was harvested after 2-3 days and the amount of virus present was titered in MT=2 cells using luciferase enzyme activity as a marker by measuring luciferase enzyme activity. Luciferase was quantitated using the EnduRen Live Cell Substrate from Promega (Madison, Wis.). Antiviral activities of compounds toward the recombinant virus were quantified by measuring luciferase activity in MT=2 cells infected for 4-5 days with the recombinant virus in the presence of serial dilutions of the compound.
The 50% effective concentration (EC50) was calculated by using the exponential form of the median effect equation where (Fa)=1/[1+(ED50/drug conc.)m] (Johnson V A, Byington RT. Infectivity Assay. In Techniques in HIV Research. ed. Aldovini A, Walker B D. 71-76. New York: Stockton Press.1990). The 50% inhibitory concentration (EC50) was calculated by using the exponential form of the median effect equation where percent inhibition=1/[1+(EC50/drug concentration)m], where m is a parameter that reflects the slope of the concentration-response curve.

[1] = Compound cytotoxicity, XTT-based colorimetric assay; format: cell-based; settings: human; uninfected MT2 cells, day 4, XTT
Method: Compound cytotoxicity and the corresponding CC50 values were determined using the same protocol as described in the antiviral assay except that uninfected cells were used. Cytotoxicity was assessed on day 4 in uninfected MT2 cells by using a XTT (2,3-bis[2-Methoxy-4-nitro-5-sulfophenyl]-2H-tetrazolium-5-carboxyanilide inner salt)-based colorimetric assay (Sigma-Aldrich, St Louis, Mo.).

| SMILES | EC50 (recombinant NL4-3 virus) [nM] | CC50 at 4 days [1] [nM] |
| --- | --- | --- |
| CS(=O)(=O)Nc1nn(CC(F)F)c2c(-n3c([C@H](Cc4cc(F)cc(F)c4)NC(=O)Cn4nc(C5CC5)cc4C(F)F)nc4nc(-c5ccccc5F)ccc4c3=O)ccc(Cl)c12 (atropisomer, axis not shown; (P)) [Example 17, (S)-N-(1-((3P)-3-(4-chloro-1-(2,2-difluoroethyl)-3-(methylsulfonamido)-1H-indazol-7-yl)-7-(2-fluorophenyl)-4-oxo-3,4-dihydropyrido[2,3-d]pyrimidin-2-yl)-2-(3,5-difluorophenyl)ethyl)-2-(3-cyclopropyl-5-(difluoromethyl)-1H-pyrazol-1-yl)acetamide] | 0.52 | > 500 |
| Cc1nccnc1-c1ccc2c(=O)n(-c3ccc(Cl)c4c(NS(=O)(=O)C5CC5)nn(CC(F)F)c34)c([C@H](Cc3cc(F)cc(F)c3)NC(=O)Cn3nc(C(F)F)cc3C3CC3)nc2c1 (atropisomer, axis not shown; (P)) [Example 35, (S)-N-(1-((3P)-3-(4-chloro-3-(cyclopropanesulfonamido)-1-(2,2-difluoroethyl)-1H-indazol-7-yl)-7-(3-methylpyrazin-2-yl)-4-oxo-3,4-dihydroquinazolin-2-yl)-2-(3,5-difluorophenyl)ethyl)-2-(5-cyclopropyl-3-(difluoromethyl)-1H-pyrazol-1-yl)acetamide] | 0.36 | > 500 |
| CC(C)[C@H](C(=O)N[C@@H](Cc1cc(F)cc(F)c1)c1nc2nc(-c3ccccc3F)ccc2c(=O)n1-c1ccc(Cl)c2c(NS(=O)(=O)C3CC3)nn(CC(F)F)c12)n1ccc(C2CC2)n1 (atropisomer, axis not shown; (P)) [Example 24, N-((S)-1-((3P)-3-(4-chloro-3-(cyclopropanesulfonamido)-1-(2,2-difluoroethyl)-1H-indazol-7-yl)-7-(2-fluorophenyl)-4-oxo-3,4-dihydropyrido[2,3-d]pyrimidin-2-yl)-2-(3,5-difluorophenyl)ethyl)-2-(3-cyclopropyl-1H-pyrazol-1-yl)-3-methylbutanamide] | 3.9 | > 500 |
| Cn1nc(NS(C)(=O)=O)c2c(Cl)ccc(-n3c([C@H](Cc4cc(F)cc(F)c4)NC(=O)Cn4ccc(C(C)(C)C)n4)nc4nc(-c5ccccc5F)ccc4c3=O)c21 (atropisomer, axis not shown; (P)) [Example 14, (S)-2-(3-(tert-butyl)-1H-pyrazol-1-yl)-N-(1-((3P)-3-(4-chloro-1-methyl-3-(methylsulfonamido)-1H-indazol-7-yl)-7-(2-fluorophenyl)-4-oxo-3,4-dihydropyrido[2,3-d]pyrimidin-2-yl)-2-(3,5-difluorophenyl)ethyl)acetamide] | 0.53 | > 500 |
| CS(=O)(=O)Nc1nn(CC(F)F)c2c(-n3c([C@H](Cc4cc(F)cc(F)c4)NC(=O)Cn4nc(C(F)F)cc4C4CC4)nc4nc(-c5ccccc5F)ccc4c3=O)ccc(Cl)c12 (atropisomer, axis not shown; (P)) [Example 16] | 0.37 | > 500 |
| Cn1nc(NS(C)(=O)=O)c2c(Cl)ccc(-n3c([C@H](Cc4cc(F)cc(F)c4)NC(=O)Cn4nc(C5CC5)c5ccccc54)nc4nc(-c5ccccc5F)ccc4c3=O)c21 (atropisomer, axis not shown; (P)) [Example 15, (S)-N-(1-((3P)-3-(4-chloro-1-methyl-3-(methylsulfonamido)-1H-indazol-7-yl)-7-(2-fluorophenyl)-4-oxo-3,4-dihydropyrido[2,3-d]pyrimidin-2-yl)-2-(3,5-difluorophenyl)ethyl)-2-(3-cyclopropyl-1H-indazol-1-yl)acetamide] | 0.17 | > 500 |
| Cc1cc(C)nc(-c2ccc3c(=O)n(-c4ccc(Cl)c5c(NS(C)(=O)=O)nn(C)c45)c([C@H](Cc4cc(F)cc(F)c4)NC(=O)Cn4nc(C(F)(F)F)cc4C(F)(F)F)nc3c2)n1 (atropisomer, axis not shown; (P)) [Example 3, (S)-2-(3,5-bis(trifluoromethyl)-1H-pyrazol-1-yl)-N-(1-((3P)-3-(4-chloro-1-methyl-3-(methylsulfonamido)-1H-indazol-7-yl)-7-(4,6-dimethylpyrimidin-2-yl)-4-oxo-3,4-dihydroquinazolin-2-yl)-2-(3,5-difluorophenyl)ethyl)acetamide] | 3.6 | > 500 |
| CC(C)(C(=O)N[C@@H](Cc1cc(F)cc(F)c1)c1nc2nc(-c3ccccc3F)ccc2c(=O)n1-c1ccc(Cl)c2c(NS(C)(=O)=O)nn(CC(F)(F)F)c12)n1ccc(C2CC2)n1 (atropisomer, axis not shown; (P)) [Example 22, (S)-N-(1-((3P)-3-(4-chloro-3-(methylsulfonamido)-1-(2,2,2-trifluoroethyl)-1H-indazol-7-yl)-7-(2-fluorophenyl)-4-oxo-3,4-dihydropyrido[2,3-d]pyrimidin-2-yl)-2-(3,5-difluorophenyl)ethyl)-2-(3-cyclopropyl-1H-pyrazol-1-yl)-2-methylpropanamide] | 0.8 | > 500 |
| CC(C)[C@@H](C(=O)N[C@@H](Cc1cc(F)cc(F)c1)c1nc2nc(-c3ccccc3F)ccc2c(=O)n1-c1ccc(Cl)c2c(NS(C)(=O)=O)nn(CC(F)(F)F)c12)n1ccc(C2CC2)n1 (atropisomer, axis not shown; (P)) [Example 23, N-((S)-1-((3P)-3-(4-chloro-3-(methylsulfonamido)-1-(2,2,2-trifluoroethyl)-1H-indazol-7-yl)-7-(2-fluorophenyl)-4-oxo-3,4-dihydropyrido[2,3-d]pyrimidin-2-yl)-2-(3,5-difluorophenyl)ethyl)-2-(3-cyclopropyl-1H-pyrazol-1-yl)-3-methylbutanamide] | 0.21 | > 500 |
| Cc1nccnc1-c1ccc2c(=O)n(-c3ccc(Cl)c4c(NS(C)(=O)=O)nn(C)c34)c([C@H](Cc3cc(F)cc(F)c3)NC(=O)Cn3nc(C(F)(F)F)cc3C(F)(F)F)nc2c1 (atropisomer, axis not shown; (P)) [Example 1, (S)-2-(3,5-bis(trifluoromethyl)-1H-pyrazol-1-yl)-N-(1-((3P)-3-(4-chloro-1-methyl-3-(methylsulfonamido)-1H-indazol-7-yl)-7-(3-methylpyrazin-2-yl)-4-oxo-3,4-dihydroquinazolin-2-yl)-2-(3,5-difluorophenyl)ethyl)acetamide] | 1.9 | > 500 |
| O=C(Cn1nc(C(F)F)cc1C1CC1)N[C@@H](Cc1cc(F)cc(F)c1)c1nc2cc(-c3ncccn3)ccc2c(=O)n1-c1ccc(Cl)c2c(NS(=O)(=O)C3CC3)nn(CC(F)F)c12 (atropisomer, axis not shown; (P)) [Example 34, (S)-N-(1-((3P)-3-(4-chloro-3-(cyclopropanesulfonamido)-1-(2,2-difluoroethyl)-1H-indazol-7-yl)-4-oxo-7-(pyrimidin-2-yl)-3,4-dihydroquinazolin-2-yl)-2-(3,5-difluorophenyl)ethyl)-2-(5-cyclopropyl-3-(difluoromethyl)-1H-pyrazol-1-yl)acetamide] | 0.4 | > 500 |
